The target of one experiment is T1, lipoxygénase de soja (Glycine max, UniProt P08170).
T1 sequence (P08170 1-839): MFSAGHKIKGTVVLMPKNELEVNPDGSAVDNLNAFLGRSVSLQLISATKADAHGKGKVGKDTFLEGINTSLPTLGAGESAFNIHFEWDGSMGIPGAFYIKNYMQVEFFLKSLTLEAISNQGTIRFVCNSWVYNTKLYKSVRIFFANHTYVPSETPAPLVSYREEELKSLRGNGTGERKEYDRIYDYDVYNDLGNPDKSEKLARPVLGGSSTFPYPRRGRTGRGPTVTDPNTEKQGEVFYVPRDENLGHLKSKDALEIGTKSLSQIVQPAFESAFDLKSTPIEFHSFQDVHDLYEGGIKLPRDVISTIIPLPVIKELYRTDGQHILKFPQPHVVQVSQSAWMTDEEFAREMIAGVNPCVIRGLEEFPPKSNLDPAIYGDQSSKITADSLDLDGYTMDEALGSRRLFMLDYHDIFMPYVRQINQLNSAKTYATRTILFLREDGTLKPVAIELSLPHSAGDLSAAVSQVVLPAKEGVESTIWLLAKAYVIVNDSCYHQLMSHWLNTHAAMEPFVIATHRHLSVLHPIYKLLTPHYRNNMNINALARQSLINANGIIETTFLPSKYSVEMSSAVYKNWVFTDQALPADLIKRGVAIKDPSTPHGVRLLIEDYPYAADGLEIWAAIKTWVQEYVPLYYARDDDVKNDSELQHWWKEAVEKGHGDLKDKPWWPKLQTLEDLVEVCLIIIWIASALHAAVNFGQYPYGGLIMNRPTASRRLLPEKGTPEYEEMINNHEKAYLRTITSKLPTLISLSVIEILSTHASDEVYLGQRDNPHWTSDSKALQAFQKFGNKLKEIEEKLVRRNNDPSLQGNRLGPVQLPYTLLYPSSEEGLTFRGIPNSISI
As to the kind of experiment: Anti-lipoxygenase action on soybean lipoxygenase. In kind it is biochemical. From the text: L'action anti-lipoxygénase a été étudiée sur la lipoxygénase de soja selon la méthode décrite par W.L SMITH et W.E LANDS (J. Biol. Chem. 247 (1972) 1038-1047)

Another experiment concerns RAT. As to the kind of experiment: Diuretic activity in the rat (hourly urine volume, sodium and potassium assay). In kind it is in vivo. As to conditions: po; R = RAT; diuretic activity; read-out: Dose minimale active. From the text: (§1) d'urine sont déterminés toutes les heures. Le dosage de sodium et du potassium est effectué par spectrophotométrie.
Experiment [1] concerns plasmas riches en plaquettes provenant de sang de rat. As to the kind of experiment: Platelet anti-aggregation in vitro, ADP-induced (Born aggregometer). Type of experiment: cell-based. As to conditions: in vitro, aggregating agent ADP, rat platelet-rich plasma, 37°; M not defined in the text; mM printed only in the TICLOPIDINE line. Here is the method: Les études ont été réalisées sur des plasmas riches en plaquettes provenant de sang de rat, l'agrégation étant induite par addition d'acide Adénosine diphosphorique. Les courbes néphélométriques d'agrégation sont obtenues en utilisant un agrégomètre de type BORN, le plasma étant placé en incubation à 37° avec agitation continue de 1100 t/mn (cf. BORN G.V.R et CROSS J. - J. Physiol. 168 (1962) 178.

The next experiment deals with T2, COTRANSPORT Na-K (Homo sapiens, UniProt P55011).
T2 construct: systèmes de transport du sodium et du potassium des érythrocytes humains; endogenous in cells; host or cells: human erythrocytes
T2 sequence (P55011 1-1212): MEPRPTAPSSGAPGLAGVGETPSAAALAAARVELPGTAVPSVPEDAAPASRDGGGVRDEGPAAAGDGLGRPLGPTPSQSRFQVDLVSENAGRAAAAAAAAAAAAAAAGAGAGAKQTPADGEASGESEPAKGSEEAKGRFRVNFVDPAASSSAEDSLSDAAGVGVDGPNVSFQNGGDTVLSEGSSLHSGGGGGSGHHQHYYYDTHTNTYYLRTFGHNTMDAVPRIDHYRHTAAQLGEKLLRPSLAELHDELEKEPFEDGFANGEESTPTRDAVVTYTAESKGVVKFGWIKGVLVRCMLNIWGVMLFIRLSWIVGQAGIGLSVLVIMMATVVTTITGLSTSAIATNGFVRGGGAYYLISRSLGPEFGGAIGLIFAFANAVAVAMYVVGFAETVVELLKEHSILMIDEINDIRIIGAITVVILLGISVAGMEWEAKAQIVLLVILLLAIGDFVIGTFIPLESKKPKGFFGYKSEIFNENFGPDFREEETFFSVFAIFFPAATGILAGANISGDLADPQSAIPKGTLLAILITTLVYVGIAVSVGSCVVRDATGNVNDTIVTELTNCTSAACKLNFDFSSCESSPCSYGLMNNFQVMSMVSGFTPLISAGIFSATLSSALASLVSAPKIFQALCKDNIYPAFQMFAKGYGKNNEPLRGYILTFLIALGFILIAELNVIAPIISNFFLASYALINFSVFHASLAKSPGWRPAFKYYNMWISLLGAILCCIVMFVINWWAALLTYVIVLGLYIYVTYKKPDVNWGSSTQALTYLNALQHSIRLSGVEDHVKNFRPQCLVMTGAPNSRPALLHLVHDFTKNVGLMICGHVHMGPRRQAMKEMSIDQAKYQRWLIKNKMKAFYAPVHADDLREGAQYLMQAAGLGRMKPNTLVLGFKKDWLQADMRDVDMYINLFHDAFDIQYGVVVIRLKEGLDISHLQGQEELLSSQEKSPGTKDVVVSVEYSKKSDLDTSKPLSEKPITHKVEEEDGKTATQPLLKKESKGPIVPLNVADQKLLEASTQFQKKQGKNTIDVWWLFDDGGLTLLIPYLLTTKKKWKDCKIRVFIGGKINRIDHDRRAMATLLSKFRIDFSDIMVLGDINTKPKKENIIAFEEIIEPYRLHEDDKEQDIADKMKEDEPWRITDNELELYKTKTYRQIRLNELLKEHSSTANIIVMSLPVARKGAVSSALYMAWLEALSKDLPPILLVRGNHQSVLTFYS
As to the kind of experiment: Na-K cotransport of human erythrocytes. Type of experiment: cell-based, ERYTHROCYTES HUMAINS. As to conditions: human erythrocytes; read-out: EFFET SUR LE COTRANSPORT Na-K IC 50. The text has this:
Cet effet a été étudié selon la méthodologie décrite par G. GARAY et coll. dans Naunyn-Schmidberg's Arch. Pharmakol. […] Pharm.

In the next experiment the test system is SOURIS. As to the kind of experiment: Diuretic activity in the mouse (hourly urine volume, sodium and potassium assay). In kind it is in vivo. Particulars: Mus musculus, po; S = SOURIS; diuretic activity; read-out: Dose minimale active.
From the text: as §1

Here are results for one compound from patent EP0428423A2, “Aryloxy alkyl benzenes, processes for their preparation and pharmaceutical compositions containing them” (LIPHA S.A., priority 1989, dated 1991).

In the case of `Cc1ccc(O)c(CCOc2ccccc2)c1` [ex 36], at lipoxygénase de soja, the “ACTIVITE ANTI-LIPOXYGENASE IC 50” value is “Inactif”. Further, the minimal effective dose with RAT and in the experiment on SOURIS was 100 mg/kg each time. The “M à 50” value in experiment [1] was “inactif”. For the same compound, the IC50 at COTRANSPORT Na-K is > 600 µM.
